Measured values taken from ChEMBL document CHEMBL1125546, “Novel 5-HT3 antagonists. Isoquinolinones and 3-aryl-2-pyridones” (J Med Chem, 1992).

Legend:
Canis familiaris [1] = experiment: Compound was evaluated for protection against cisplatin-induced emesis by measuring number of retches in dogs administered intravenously at 0.03 mg/kg; assay type: functional, Canis lupus familiaris; conditions: route intravenous
Canis familiaris [2] = experiment: Compound was evaluated for protection against cisplatin-induced emesis by measuring number of emetic episodes in dogs administered perorally at 0.3 mg/kg; assay type: functional, Canis lupus familiaris; conditions: route oral
Canis familiaris [3] = experiment: Compound was evaluated for protection against cisplatin-induced emesis by measuring number of emetic episodes in dogs administered perorally at 1.0 mg/kg; assay type: functional, Canis lupus familiaris; conditions: route oral
Canis familiaris [4] = experiment: No. of emetic episodes in dogs when administered perorally at 3.0 mg/kg; assay type: functional, Canis lupus familiaris; conditions: route oral
Canis familiaris [5] = experiment: Compound was evaluated for protection against cisplatin-induced emesis by measuring number of retches in dogs administered intravenously at 0.1 mg/kg.; assay type: functional, Canis lupus familiaris; conditions: route intravenous
Canis familiaris [6] = experiment: Compound was evaluated for protection against cisplatin-induced emesis by measuring number of retches in dogs administered perorally at 0.3 mg/kg; assay type: functional, Canis lupus familiaris; conditions: route oral
Canis familiaris [7] = experiment: Compound was evaluated for protection against cisplatin-induced emesis by measuring number of retches in dogs administered perorally at 1.0 mg/kg; assay type: functional, Canis lupus familiaris; conditions: route oral
Canis familiaris [8] = experiment: Compound was evaluated for protection against cisplatin-induced emesis by measuring number of retches in dogs administered perorally at 3.0 mg/kg; assay type: functional, Canis lupus familiaris; conditions: route oral
Canis familiaris [9] = experiment: Compound was evaluated for protection against cisplatin-induced emesis by measuring number of retches in dogs administered intravenously at 0.3 mg/kg; assay type: functional, Canis lupus familiaris; conditions: route intravenous
Canis familiaris [10] = experiment: Compound was evaluated for protection against cisplatin-induced emesis by measuring number of emetic episodes in dogs administered intravenously at 0.3 mg/kg; assay type: functional, Canis lupus familiaris; conditions: route intravenous
Canis familiaris [11] = experiment: Compound was evaluated for protection against cisplatin-induced emesis by measuring number of emetic episodes in dogs administered intravenously at 0.03 mg/kg; assay type: functional, Canis lupus familiaris; conditions: route intravenous
Canis familiaris [12] = experiment: Compound was evaluated for protection against cisplatin-induced emesis by measuring number of emetic episodes in dogs administered intravenously at 0.1 mg/kg; assay type: functional, Canis lupus familiaris; conditions: route intravenous
[13] = Compound was evaluated for protection against cisplatin-induced emesis by measuring number of retches in ferrets administered perorally at 0.1 mg/kg; assay type: functional, Mustela putorius furo; conditions: route oral
[14] = Compound was evaluated for protection against cisplatin-induced emesis by measuring number of retches in ferrets administered perorally at 0.3 mg/kg; assay type: functional, Mustela putorius furo; conditions: route oral
[15] = Compound was evaluated for protection against cisplatin-induced emesis by measuring number of retches in ferrets administered perorally at 1.0 mg/kg; assay type: functional, Mustela putorius furo; conditions: route oral
[16] = Compound was evaluated for number of emetic episodes in ferrets administered intravenously at 0.1 mg/kg; assay type: functional, Mustela putorius furo; conditions: route intravenous
[17] = Compound was evaluated for number of emetic episodes in ferrets administered intravenously at 0.3 mg/kg; assay type: functional, Mustela putorius furo; conditions: route intravenous
[18] = Compound was evaluated for number of emetic episodes in ferrets administered intravenously at 1.0 mg/kg; assay type: functional, Mustela putorius furo; conditions: route intravenous
Mustela putorius furo [19] = experiment: Compound was evaluated for number of emetic episodes in ferrets administered perorally at 0.1 mg/kg; assay type: functional; conditions: route oral
Mustela putorius furo [20] = experiment: Compound was evaluated for number of emetic episodes in ferrets administered perorally at 0.3 mg/kg; assay type: functional; conditions: route oral
Mustela putorius furo [21] = experiment: Compound was evaluated for number of emetic episodes in ferrets administered perorally at 1.0 mg/kg; assay type: functional; conditions: route oral
Rattus norvegicus = experiment: Inhibitory activity against Bezold-jarisch functional assay, inducing a transient bradycardia upon intravenous administration of 5-hydroxytryptamine-(10 ug/kg) in anesthetized rats.; conditions: read-out: ID50 (the source's name)
Mus musculus = experiment: Acute lethal toxicity in mouse at 8.4 mg/kg when administered intravenously; value = 5/10; assay type: organism-based; design: dose 8.4 mg/kg, route intravenous; conditions: in vivo, iv

Cc1nccn1CC1CCc2c(c3ccccc3n2C)C1=O (stereo unspecified) [ONDANSETRON]
No. of retches (Canis familiaris [1]): 118.8
No. of emetic episodes (Canis familiaris [2]): 9
No. of emetic episodes (Canis familiaris [3]): 2.8
No. of emetic episodes (Canis familiaris [4]): 2
No. of retches (Canis familiaris [5]): 9
No. of retches (Canis familiaris [6]): 112.8
No. of retches (Canis familiaris [7]): 29.8
No. of retches (Canis familiaris [8]): 22.8
No. of retches (Canis familiaris [9]): 35.4
No. of emetic episodes (Canis familiaris [10]): 4.1
No. of emetic episodes (Canis familiaris [11]): 10.5
No. of emetic episodes (Canis familiaris [12]): 2.2
No. of retches [13]: 125.3
No. of retches [14]: 84.8
No. of retches [15]: 39.5
No. of emetic episodes [16]: 6.3
No. of retches [16]: 114
No. of emetic episodes [17]: 3.5
No. of retches [17]: 42.5
No. of emetic episodes [18]: 0
No. of retches [18]: 2.5
No. of emetic episodes (Mustela putorius furo [19]): 8.5
No. of emetic episodes (Mustela putorius furo [20]): 6.3
No. of emetic episodes (Mustela putorius furo [21]): 2.3
ED50 (Rattus norvegicus): 0.86 µg/kg
Acute lethal toxicity (Mus musculus): Partially active
